Source: US20070190523A1 (priority 2002, published 2007)
Like-named read-outs stand apart in the source and are kept apart here.

Legend:
[1] = system: wild-type HIV-1 strain IIIB; assay: microbe, parasite or virus in culture; assay type: cell-based
[2] = system: mutant HIV-1 with I84V/L90M mutations; assay type: cell-based
[3] = molecular target: recombinant HIV-1 protease (Human immunodeficiency virus type 1 group M subtype B, UniProt P04585); assay: biochemical; assay type: biochemical; conditions: read-out: Ki
WT = WT (Human immunodeficiency virus type 1 group M subtype B, UniProt P04585); assay: cell-based; set-up: species or system HIV
84V90M [4] = molecular target: T1, 84V90M (Human immunodeficiency virus type 1 group M subtype B, UniProt P04585, I572V/L578M); assay: cell-based; set-up: species or system HIV
[5] = system: recombinant HIV-1 strains with resistance mutations in the protease gene; assay: Cross-Resistance Profile Assay, whole panel; assay type: cell-based; conditions: {}
84V90M [6] = molecular target: T1, 84V90M; assay: biochemical; assay type: biochemical, HIV; conditions: Enzymatic assay, 84V90M; read-out: 84V90M IC50/nM
30N82I88D = assay: microbe, parasite or virus in culture; assay type: cell-based, HIV; conditions: Human immunodeficiency virus 1, read-out: Cell-based assay (MT-4) EC50/nM 30N82I88D
[7] = Human immunodeficiency virus 1, IIIB, MT2, Table 10, class symbols
[8] = fold difference in EC50 vs wild type, class symbols
[9] = Human immunodeficiency virus 1, IIIB, MT2
[10] = MT-4, 84V90M, read-out: Cell-based assay (MT-4) EC50/nM 84V90M

## CCOC(=O)C(C)OP(=O)(Cc1ccc2c(c1)CCN(CC(NC(=O)OC1COC3OCCC13)C(O)CN(CC(C)C)S(=O)(=O)c1ccc(OC)cc1)C2)Oc1ccccc1 (stereo not drawn)
[1]; [7]
  EC50: 50 to 500 nM
[2]; [8]
  I84V/L90M fold change: + (>3 to ≦10)

## CCOP(=O)(COc1ccc2c(c1)CCN(CC(NC(=O)OC1COC3OCCC13)C(O)CN(CC(C)C)S(=O)(=O)c1ccc(OC)cc1)C2)OCC (stereo not drawn)
[1]; [9]
  EC50: 50 to 500 nM
[2]; [8]
  I84V/L90M fold change: + (>3 to ≦10)

## COc1ccc(S(=O)(=O)N(CC(C)C)CC(O)C(Cc2ccc(C)cc2)NC(=O)OC2COC3OCCC23)cc1 (stereo not drawn)
[1]; [9]
  EC50: < 50 nM
[2]; I84V/L90M mutant
  I84V/L90M fold change: + (>3 to ≦10)

## CCOC(=O)C(C)OP(=O)(Cc1ccc(N(C)CC(NC(=O)OC2COC3OCCC23)C(O)CN(CC(C)C)S(=O)(=O)c2ccc(OC)cc2)cc1)Oc1ccccc1 (stereo not drawn)
[3]
  Ki: 0.01 to 0.1 nM
[1]; read-out: EC50
  EC50: 500 to 5000 nM
[2]; I84V/L90M mutant
  I84V/L90M fold change: +++ (>30)

## COc1ccc(S(=O)(=O)N(CC(C)C)CC(O)C(Cc2ccc(NCP(=O)(O)O)cc2)NC(=O)OC2COC3OCCC23)cc1 (stereo not drawn)
[1]; read-out: EC50
  EC50: 50 to 500 nM

## Cc1cccc(C)c1OCC(=O)N[C@@H](Cc1ccc(OCP(=O)(Oc2ccccc2)Oc2ccccc2)cc1)[C@H](O)CN(CC(C)C)S(=O)(=O)c1ccc(N)cc1
[3]
  Ki: 0.01 to 0.1 nM

## Cc1ccc(C(=O)N[C@@H](Cc2ccc(OCP(=O)(Oc3ccccc3)Oc3ccccc3)cc2)[C@H](O)CN(CC(C)C)S(=O)(=O)c2ccc(N)cc2)cc1O
[1]; read-out: EC50
  EC50: 500 to 5000 nM

## CC(C)CN(C[C@@H](O)[C@H](Cc1ccc(OCP(=O)(OCc2ccccc2)OC(C)C(=O)OCc2ccccc2)cc1)NC(=O)O[C@H]1CO[C@H]2OCC[C@H]21)S(=O)(=O)c1ccc(OCc2ccccc2)cc1 (stereo partly drawn)
[1]; read-out: EC50
  EC50: 500 to 5000 nM

## CCOP(=O)(CCCNC(=O)c1cccc(CN2C(=O)N(Cc3cccc(N)c3)C(Cc3ccccc3)C(O)C(O)C2Cc2ccccc2)c1)OCC (stereo not drawn)
WT
  EC50: 176 nM

## CCOP(=O)(COc1ccc(CC2C(O)C(O)C(Cc3ccccc3)N(Cc3ccccc3)C(=O)N2Cc2ccccc2)cc1)OCC (stereo not drawn)
WT
  EC50: 107 nM
84V90M [4]; [10]
  EC50: 2460 nM

## Nc1n[nH]c2ccc(CN3C(=O)N(Cc4cccc(OCP(=O)(OCc5ccccc5)OCc5ccccc5)c4)C(Cc4ccccc4)C(O)C(O)C3Cc3ccccc3)cc12 (stereo not drawn)
WT
  EC50: 898 nM

## CCOP(=O)(COc1cccc(CN2C(=O)N(Cc3ccc4[nH]nc(N)c4c3)C(Cc3ccccc3)C(O)C(O)C2Cc2ccccc2)c1)OCC (stereo not drawn)
WT
  EC50: 665 nM

## Nc1n[nH]c2ccc(CN3C(=O)N(Cc4ccc(OCP(=O)(OCc5ccccc5)OCc5ccccc5)cc4)C(Cc4ccccc4)C(O)C(O)C3Cc3ccccc3)cc12 (stereo not drawn)
WT
  EC50: 2700 nM

## CCOP(=O)(COc1ccc(CN2C(=O)N(Cc3ccc4[nH]nc(N)c4c3)C(Cc3ccccc3)C(O)C(O)C2Cc2ccccc2)cc1)OCC (stereo not drawn)
WT
  EC50: 2480 nM

## CC(C)CN(C[C@@H](O)[C@H](Cc1ccccc1)NC(=O)O[C@H]1CCOC1)S(=O)(=O)c1ccc(N)cc1 [Amprenavir, amprenavir]
[5]
  Total No. of Resistant Viruses: 4

## CCOP(=O)(COCCCCN1C(=O)N(Cc2ccc3[nH]nc(N)c3c2)C(Cc2ccccc2)C(O)C(O)C1Cc1ccccc1)OCC (stereo not drawn) [CH2OCH2PO3Et2]
WT
  EC50: 119 nM

## Nc1n[nH]c2ccc(CN3C(=O)N(CCCCOCP(=O)(O)O)C(Cc4ccccc4)C(O)C(O)C3Cc3ccccc3)cc12 (stereo not drawn) [CH2OCH2PO3H2]
WT
  EC50: 1760 nM

## CCCCN1C(=O)N(Cc2ccc3[nH]nc(N)c3c2)C(Cc2ccccc2)C(O)C(O)C1Cc1ccccc1 (stereo not drawn) [DMP-851]
WT
  EC50: 54 nM

## CCCCOC(=O)C(Cc1ccccc1)NP(=O)(COc1ccc(CC(NC(=O)OC2COC3OCCC23)C(O)CN(CC(C)C)S(=O)(=O)c2ccc(OC)cc2)cc1)NC(Cc1ccccc1)C(=O)OCCCC (stereo not drawn) [Example 16j]
[1]; read-out: Anti-HIV-1 Cell Culture Activity EC50
  EC50: 35 ± 7 nM

## COc1ccc(S(=O)(=O)N(CC(C)C)C[C@@H](O)[C@H](Cc2ccccc2)NC(=O)O[C@H]2CO[C@H]3OCC[C@H]32)cc1 [Example 94-003]
[5]
  Total No. of Resistant Viruses: 3

## CC(C)(C)NC(=O)[C@@H]1CN(Cc2cccnc2)CCN1C[C@@H](O)C[C@@H](Cc1ccccc1)C(=O)N[C@H]1c2ccccc2C[C@H]1O [Indinavir]
[5]
  Total No. of Resistant Viruses: 8

## Cc1c(O)cccc1C(=O)N[C@@H](CSc1ccccc1)[C@H](O)CN1C[C@H]2CCCC[C@H]2C[C@H]1C(=O)NC(C)(C)C [Nelfinavir, nelfinavir]
[5]
  Total No. of Resistant Viruses: 9

## Nc1n[nH]c2ccc(CN3C(=O)N(CCCOCP(=O)(O)O)C(Cc4ccccc4)C(O)C(O)C3Cc3ccccc3)cc12 (stereo not drawn) [OCH2PO3H2]
WT; MT-4, WT, read-out: Cell-based assay (MT-4) EC50/nM WT
  EC50: 1070 nM
84V90M [4]; [10]
  EC50: > 600 nM

## CCOP(=O)(COc1ccc(CC2C(O)C(O)C(Cc3ccc(OC)cc3)N(Cc3cccc(N)c3)C(=O)N2Cc2cccc(N)c2)cc1)OCC (stereo not drawn) [OCH3, Ph-mNH2, OCH2PO3Et2]
WT
  EC50: 63 nM

## CC(C)CN(CC(O)C(Cc1ccc(O)cc1)NC(=O)OC1COC2OCCC12)S(=O)(=O)c1ccc(OCP(=O)(O)O)cc1 (stereo not drawn) [OH, OH]
[1]; [9]
  EC50: > 5000 nM

## CCOP(=O)(COc1ccc(CC2C(O)C(O)C(Cc3ccc(O)cc3)N(Cc3ccc(O)cc3)C(=O)N2Cc2ccc(O)cc2)cc1)OCC (stereo not drawn) [OH, Ph-pOH, OCH2PO3Et2]
WT
  EC50: 285 nM
84V90M [4]; [10]
  EC50: 1910 nM

## CCOP(=O)(COc1ccc(CC(NC(=O)OC2CCOC2)C(O)CN(CC(C)C)S(=O)(=O)c2ccc(OC)cc2)cc1)OCC (stereo not drawn) [OMe, OEt]
[1]; [9]
  EC50: < 50 nM
[2]; I84V/L90M mutant
  I84V/L90M fold change: ++ (>10 to ≦30)

## CC(C)c1nc(CN(C)C(=O)N[C@H](C(=O)N[C@@H](Cc2ccccc2)C[C@H](O)[C@H](Cc2ccccc2)NC(=O)OCc2cncs2)C(C)C)cs1 [Ritonavir]
[5]
  Total No. of Resistant Viruses: 10

## CC(C)(C)NC(=O)[C@@H]1C[C@@H]2CCCC[C@@H]2CN1C[C@@H](O)[C@H](Cc1ccccc1)NC(=O)[C@H](CC(N)=O)NC(=O)c1ccc2ccccc2n1 [Saquinavir]
[5]
  Total No. of Resistant Viruses: 4

## CCOC(=O)C(CC)NP(=O)(COc1ccc(CC(NC(=O)OC2COC3OCCC23)C(O)CN(CC(C)C)S(=O)(=O)c2ccc(OC)cc2)cc1)NC(CC)C(=O)OCC (stereo not drawn) [drawing 606 R1=Aba-Et R2=Aba-Et]
[1]; [9]
  EC50: < 50 nM

## CCOC(=O)COP(=O)(COc1ccc(CC(NC(=O)OC2COC3OCCC23)C(O)CN(CC(C)C)S(=O)(=O)c2ccc(OC)cc2)cc1)OCC(=O)OCC (stereo not drawn) [drawing 607 R1=Glc-Et R2=Glc-Et]
[1]; [9]
  EC50: 500 to 5000 nM
[2]; [8]
  I84V/L90M fold change: − (≦3)

## COc1ccc(S(=O)(=O)N(CC(C)C)CC(O)C(Cc2ccc(OCP(=O)(O)OC(C)C(=O)O)cc2)NC(=O)OC2COC3OCCC23)cc1 [drawing 609 R1=OH R2=(R)Lac-OH]
[2]; [8]
  I84V/L90M fold change: − (≦3)

## COc1ccc(S(=O)(=O)N(CC(C)C)CC(O)C(Cc2ccc(OCP(=O)(O)OC(C)C(=O)O)cc2)NC(=O)OC2COC3OCCC23)cc1 (stereo not drawn) [drawing 609 R1=OH R2=Lac-OH]
[2]; [8]
  I84V/L90M fold change: − (≦3)

## CCOC(=O)COP(=O)(COc1ccc(CC(NC(=O)OC2COC3OCCC23)C(O)CN(CC(C)C)S(=O)(=O)c2ccc(OC)cc2)cc1)Oc1ccccc1 (stereo not drawn) [drawing 609 R1=OPh R2=Glc-Et]
[1]; [7]
  EC50: < 50 nM
[2]; [8]
  I84V/L90M fold change: − (≦3)

## CCCCOC(=O)C(C)OP(=O)(COc1ccc(CC(NC(=O)OC2COC3OCCC23)C(O)CN(CC(C)C)S(=O)(=O)c2ccc(OC)cc2)cc1)Oc1ccccc1 (stereo not drawn) [drawing 609 R1=OPh R2=Lac-Bu]
[2]; [8]
  I84V/L90M fold change: − (≦3)

## COc1ccc(S(=O)(=O)N(CC(C)C)CC(O)C(Cc2ccc(OCP(=O)(Oc3ccccc3)OC(C)C(=O)OC(C)C)cc2)NC(=O)OC2COC3OCCC23)cc1 (stereo not drawn) [drawing 609 R1=OPh R2=Lac-iPr]
[2]; [8]
  I84V/L90M fold change: − (≦3)

## CCOP(=O)(CON=Cc1ccc(CC(NC(=O)OC2COC3OCCC23)C(O)CN(CC(C)C)S(=O)(=O)c2ccc(OC)cc2)cc1)OCC (stereo not drawn) [drawing 615 R1=Et R2=Et]
[2]; [8]
  I84V/L90M fold change: − (≦3)

## Nc1n[nH]c2ccc(CN3C(=O)N(Cc4cccc(OCc5ccccc5)c4)C(Cc4ccccc4)C(O)C(O)C3Cc3ccccc3)cc12 (stereo not drawn) [m-OBn]
84V90M [6]
  IC50: 27 nM
WT
  EC50: 218 nM
84V90M [4]; [10]
  EC50: 2420 nM

## Nc1n[nH]c2ccc(CN3C(=O)N(Cc4cccc(OCP(=O)(O)O)c4)C(Cc4ccccc4)C(O)C(O)C3Cc3ccccc3)cc12 (stereo not drawn) [m-OCH2PO3H2]
WT
  EC50: > 12000 nM

## Nc1n[nH]c2ccc(CN3C(=O)N(Cc4cccc(OCP(=O)(O)Oc5ccccc5)c4)C(Cc4ccccc4)C(O)C(O)C3Cc3ccccc3)cc12 (stereo not drawn) [m-OCH2PO3HPh]
WT
  EC50: 1750 nM

## Nc1n[nH]c2ccc(CN3C(=O)N(Cc4cccc(OCP(=O)(Oc5ccccc5)Oc5ccccc5)c4)C(Cc4ccccc4)C(O)C(O)C3Cc3ccccc3)cc12 (stereo not drawn) [m-OCH2PO3Ph2]
WT
  EC50: 1350 nM

## Nc1n[nH]c2ccc(CN3C(=O)N(Cc4cccc(O)c4)C(Cc4ccccc4)C(O)C(O)C3Cc3ccccc3)cc12 (stereo not drawn) [m-OH]
WT
  EC50: 151 nM

## Nc1n[nH]c2ccc(CN3C(=O)N(Cc4ccc(OCc5ccccc5)cc4)C(Cc4ccccc4)C(O)C(O)C3Cc3ccccc3)cc12 (stereo not drawn) [p-OBn]
84V90M [6]
  IC50: 781 nM
WT
  EC50: 2120 nM
84V90M [4]
  EC50: 5310 nM
30N82I88D
  EC50: 1550 nM

## Nc1n[nH]c2ccc(CN3C(=O)N(Cc4ccc(OCP(=O)(O)O)cc4)C(Cc4ccccc4)C(O)C(O)C3Cc3ccccc3)cc12 (stereo not drawn) [p-OCH2PO3H2]
84V90M [6]
  IC50: 1660 nM
WT
  EC50: > 12000 nM

## O=C1N(Cc2ccccc2)[C@H](Cc2ccccc2)[C@H](O)[C@@H](O)[C@@H](Cc2ccccc2)N1Cc1ccc2[nH]ncc2c1 [reference compound]
WT
  EC50: 193 nM
84V90M [4]; [10]
  EC50: 2310 nM
